Results on 17 molecules are retold here after US20140274688A1, “MOLECULES HAVING CERTAIN PESTICIDAL UTILITIES, AND INTERMEDIATES, COMPOSITIONS, AND PROCESSES RELATED THERETO” (DOW AGROSCIENCES LLC, priority 2013, published 2014).

In data set [1] the test system is Beet Armyworm (Spodoptera exigua) ("BAW"). Nature of the data set: Bioassay on Beet Armyworm (BAW), 128-well diet tray assay, percent mortality. As to conditions: for BAW rating (percent mortality class): Beet Armyworm, 128-well diet tray assay; for pest or weed control at 50 µg/cm2: Spodoptera exigua, read-out: BAW. In kind it is in vivo. The text has this:
(§1) Bioassays on Beet Armyworm (Spodoptera exigua) (“BAW”) and Cabbage Looper (Trichoplusia ni) (“CL”)
(§2) BAW has few effective parasites, diseases, or predators to lower its population. BAW infests many weeds, trees, grasses, legumes, and field crops. In various places, it is of economic concern upon asparagus, cotton, corn, soybeans, tobacco, alfalfa, sugar beets, peppers, tomatoes, potatoes, onions, peas, sunflowers, and citrus, among other plants. The Cabbage Looper is a member of the moth family Noctuidae. It is found throughout the world. It is attacks cabbage, cauliflower, broccoli, Brussel sprouts, tomatoes, cucumbers, potatoes, kale, turnips, mustard, peppers, eggplant, watermelons, melons, squash, cantaloupe, peas, beans, collards, lettuce, spinach, celery, parsley, beets, peas, alfalfa, soybeans, and cotton. This species is very destructive to plants due to its voracious consumption of leaves. In the case of cabbage, however, they feed not only on the wrapper leaves, but also may bore into the developing head. The larvae consume three times their weight in plant material daily. The feeding sites are marked by large accumulations of sticky, wet fecal material.
(§3) Consequently, because of the above factors control of these pests is important.
(§4) Certain molecules disclosed in this document were tested against BAW and CEW using procedures described in the following examples. In the reporting of the results, the “BAW & CL Rating Table” was used (See Table Section).
(§5) Trays were covered with a clear self-adhesive cover and held at 25° C., 14:10 light-dark for five to seven days. Percent mortality was recorded for the larvae in each well; activity in the eight wells was then averaged. The results are indicated in the table entitled “Table ABC: Biological Results” (See Table Section).

The subject of data set [2] is Cabbage Looper (Trichoplusia ni) ("CL"). Nature of the data set: Bioassay on Cabbage Looper (CL), 128-well diet tray assay, percent mortality. The note with it: for CL rating (percent mortality class): Cabbage Looper, 128-well diet tray assay; for pest or weed control at 50 µg/cm2: Trichoplusia ni, read-out: CL. It is filed as in vivo.
Source text: as §1, §2, §3, §4
Bioassays on Cabbage Looper in CL
as §5

For `COc1ccc(NC(=S)NC(=O)NC2CC2c2ccc(-c3ncn(-c4ccc(OC(F)(F)F)cc4)n3)cc2)c(C)c1` (stereo not shown) [F26], the “BAW rating (percent mortality class)” value in data set [1] is given as “A (50-100)”. Moreover, the “CL rating (percent mortality class)” value in data set [2] is given as “A (50-100)”.

With `CCc1ccc(C)cc1NC(=S)NC(=O)NC1CC1c1ccc(-c2ncn(-c3ccc(OC(F)(F)F)cc3)n2)cc1` (stereo not shown) [F27, N-(2-ethyl-5-methylphenyl)-N′-[2-(4-{1-[4-(trifluoromethoxy)phenyl]-1H-1,2,4-triazol-3-yl}phenyl)cyclopropyl]dicarbonimidothioic diamide], in data set [1], the “BAW rating (percent mortality class)” value was “A (50-100)”. Further, in data set [2], the “CL rating (percent mortality class)” value is on record as “A (50-100)”.

As for `Cc1ccc(C(C)C)c(NC(=S)NC(=O)NC2CC2c2ccc(-c3ncn(-c4ccc(OC(F)(F)F)cc4)n3)cc2)c1` (stereo not shown) [F28, N-[5-methyl-2-(propan-2-yl)phenyl]-N′-[2-(4-{1-[4-(trifluoromethoxy)phenyl]-1H-1,2,4-triazol-3-yl}phenyl)cyclopropyl]dicarbonimidothioic diamide], the “BAW rating (percent mortality class)” value in data set [1] is reported as “A (50-100)”. The “CL rating (percent mortality class)” value in data set [2] is “A (50-100)”.

Take `CCCc1ccccc1N1C(=O)CS/C1=N\C(=O)NC1CC1c1ccc(-c2ncn(-c3ccc(OC(F)(F)F)cc3)n2)cc1` (stereo not shown) [F30, (Z)-1-(4-oxo-3-(2-propylphenyl)thiazolidin-2-ylidene)-3-(2-(4-(1-(4-(trifluoromethoxy)phenyl)-1H-1,2,4-triazol-3-yl)phenyl)cyclopropyl)urea]: in data set [1], the “BAW rating (percent mortality class)” value is reported as “A (50-100)”. Further, the “CL rating (percent mortality class)” value in data set [2] was “A (50-100)”.

Turning to `CCc1cccc(C)c1N1C(=O)CS/C1=N\C(=O)NC1CC1c1ccc(-c2ncn(-c3ccc(OC(F)(F)F)cc3)n2)cc1` (stereo not shown) [F31, (Z)-1-(3-(2-ethyl-6-methylphenyl)-4-oxothiazolidin-2-ylidene)-3-(2-(4-(1-(4-(trifluoromethoxy)phenyl)-1H-1,2,4-triazol-3-yl)phenyl)cyclopropyl)urea], the “BAW rating (percent mortality class)” value in data set [1] is reported as “A (50-100)”. Further, the “CL rating (percent mortality class)” value in data set [2] is “A (50-100)”.

In the case of `Cc1cccc(C)c1N1C(=O)CS/C1=N\C(=O)NC1CC1c1ccc(-c2ncn(-c3ccc(OC(F)(F)F)cc3)n2)cc1` (stereo not shown) [F32, (Z)-1-(3-(2,6-dimethylphenyl)-4-oxothiazolidin-2-ylidene)-3-(2-(4-(1-(4-(trifluoromethoxy)phenyl)-1H-1,2,4-triazol-3-yl)phenyl)cyclopropyl)urea], the “BAW rating (percent mortality class)” value in data set [1] is “A (50-100)”. In addition, the “CL rating (percent mortality class)” value in data set [2] is listed as “A (50-100)”.

`CCc1ccc(C)cc1N1C(=O)CS/C1=N\C(=O)NC1CC1c1ccc(-c2ncn(-c3ccc(OC(F)(F)F)cc3)n2)cc1` (stereo not shown) [F33, (Z)-1-(3-(2-ethyl-5-methylphenyl)-4-oxothiazolidin-2-ylidene)-3-(2-(4-(1-(4-(trifluoromethoxy)phenyl)-1H-1,2,4-triazol-3-yl)phenyl)cyclopropyl)urea]: the “BAW rating (percent mortality class)” value in data set [1] is “A (50-100)”. In data set [2], the “CL rating (percent mortality class)” value is given as “A (50-100)”.

As for `Cc1ccc(C(C)C)c(N2CCS/C2=N\C(=O)NC2CC2c2ccc(-c3ncn(-c4ccc(OC(F)(F)F)cc4)n3)cc2)c1` (stereo not shown) [F34, (Z)-1-(3-(2-isopropyl-5-methylphenyl)thiazolidin-2-ylidene)-3-(2-(4-(1-(4-(trifluoromethoxy)-phenyl)-1H-1,2,4-triazol-3-yl)phenyl)cyclopropyl)urea], in data set [1], the “BAW rating (percent mortality class)” value is listed as “A (50-100)”. The “CL rating (percent mortality class)” value in data set [2] is given as “A (50-100)”.

For the molecule `Cc1ccccc1N1C(=O)CS/C1=N\C(=O)NCc1ccc(-c2ncn(-c3ccc(OC(F)(F)F)cc3)n2)cc1` [P1, (Z)-1-(4-oxo-3-(o-tolyl)thiazolidin-2-ylidene)-3-(4-(1-(4-(trifluoromethoxy)phenyl)-1H-1,2,4-triazol-3-yl)benzyl)urea], the pest or weed control at 50 µg/cm2 in data set [1] and in data set [2] was 50 to 100% throughout.

As for `CCc1ccccc1N1C(=O)CS/C1=N\C(=O)NCc1ccc(-c2ncn(-c3ccc(OC(F)(F)F)cc3)n2)cc1` [P2, (Z)-1-(3-(2-ethylphenyl)-4-oxothiazolidin-2-ylidene)-3-(4-(1-(4-(trifluoromethoxy)phenyl)-1H-1,2,4-triazol-3-yl)benzyl)urea], the pest or weed control at 50 µg/cm2 in data set [1] and in data set [2] was 50 to 100% throughout.

Consider `CC(C)c1cc(F)ccc1N1C(=O)CS/C1=N\C(=O)NCc1ccc(-c2ncn(-c3ccc(OC(F)(F)F)cc3)n2)cc1` [P3, (Z)-1-(3-(4-fluoro-2-isopropylphenyl)-4-oxothiazolidin-2-ylidene)-3-(4-(1-(4-(trifluoromethoxy)phenyl)-1H-1,2,4-triazol-3-yl)benzyl)urea], for which the pest or weed control at 50 µg/cm2 in data set [1] and in data set [2] was 50 to 100% each time.

On to `Cc1ccc(N2C(=O)CS/C2=N\C(=O)NCc2ccc(-c3ncn(-c4ccc(OC(F)(F)F)cc4)n3)cc2)c(C(C)C)c1` [P5, (Z)-1-(3-(2-isopropyl-4-methylphenyl)-4-oxothiazolidin-2-ylidene)-3-(4-(1-(4-(trifluoromethoxy)phenyl)-1H-1,2,4-triazol-3-yl)benzyl)urea], for which the pest or weed control at 50 µg/cm2 in data set [1] and in data set [2] was 50 to 100% throughout.

Consider `COc1ccc(N2C(=O)CS/C2=N\C(=O)NCc2ccc(-c3ncn(-c4ccc(OC(F)(F)F)cc4)n3)cc2)c(C)c1` [P6, (Z)-1-(3-(4-methoxy-2-methylphenyl)-4-oxothiazolidin-2-ylidene)-3-(4-(1-(4-(trifluoromethoxy)phenyl)-1H-1,2,4-triazol-3-yl)benzyl)urea], for which the pest or weed control at 50 µg/cm2 in data set [1] and in data set [2] was 50 to 100% in each case.

As to `CCc1ccc(C)cc1N1C(=O)CS/C1=N\C(=O)NCc1ccc(-c2ncn(-c3ccc(OC(F)(F)F)cc3)n2)cc1` [P7, (Z)-1-(3-(2-ethyl-5-methylphenyl)-4-oxothiazolidin-2-ylidene)-3-(4-(1-(4-(trifluoromethoxy)phenyl)-1H-1,2,4-triazol-3-yl)benzyl)urea], the pest or weed control at 50 µg/cm2 in data set [1] and in data set [2] was 50 to 100% throughout.

As to `CCCc1ccc(C)cc1N1C(=O)CS/C1=N\C(=O)NCc1ccc(-c2ncn(-c3ccc(OC(F)(F)F)cc3)n2)cc1` [P8, (Z)-1-(3-(5-methyl-2-propylphenyl)-4-oxothiazolidin-2-ylidene)-3-(4-(1-(4-(trifluoromethoxy)phenyl)-1H-1,2,4-triazol-3-yl)benzyl)urea], the pest or weed control at 50 µg/cm2 in data set [1] and in data set [2] was 50 to 100% throughout.

On to `CC(C)c1ccccc1N1C(=O)CS/C1=N\C(=O)NCc1ccc(-c2ncn(-c3ccc(C(F)(F)F)cc3)n2)cc1` [P14, (Z)-1-(3-(2-isopropylphenyl)-4-oxothiazolidin-2-ylidene)-3-(4-(1-(4-(trifluoromethyl)phenyl)-1H-1,2,4-triazol-3-yl)benzyl)urea], for which the pest or weed control at 50 µg/cm2 in data set [1] and in data set [2] was 50 to 100% each time.

For `Cc1ccc(N2C(=O)CS/C2=N\C(=O)NCc2ccc(-c3ncn(-c4ccc(C(F)(F)F)cc4)n3)cc2)c(C(C)C)c1` [P15, (Z)-1-(3-(2-isopropyl-4-methylphenyl)-4-oxothiazolidin-2-ylidene)-3-(4-(1-(4-(trifluoromethyl)phenyl)-1H-1,2,4-triazol-3-yl)benzyl)urea], the pest or weed control at 50 µg/cm2 in data set [1] and in data set [2] was 50 to 100% throughout.
